{"source": "patent US11759412B2", "about": "“Personal care compositions with glutathione precursor comprising 4-substituted resorcinols and amino acids” (Conopco, Inc., priority 2016, dated 2023)", "assay_type_in_all_cases": "cell-based", "key": {"Human Keratinocytes [1]": {"tested_on": "Human Keratinocytes", "assay": "Cell Viability Assay (CCK-8, menadione)", "conditions": "for cell viability (% vehicle of control): Table 3B", "method": "Human Keratinocytes (Promocell, Heidelberg, Germany) were maintained in EpiLife® keratinocyte medium containing 60 uM calcium chloride and 1% Human Keratinocyte Growth Supplement (HKGS). The medium was refreshed every other day. Subsequently, cells were trypsinized at 90% confluency and seeded at a density of 2×10^4 per well into 96-well transparent tissue culture plates. On the second day after seeding, cell medium was replaced with treatments as described above in ROS assay section. After 18 hours, […] (CCK-8) reagent (Dojindo, Kumamoto, Japan) was diluted 1:10 in HBSS and incubated with cells for 4 h at 37° C. in a humidified incubator. Optical absorption at 450 nm was measured using a Tecan Safire2 plate reader. Relative viability was calculated with normalization based on the vehicle control treatment, which was set to 100%.\nWhere indicated, percent protection was calculated as a comparison to menadione alone treatment, using the measured relative absorbance units in the following equation: […]"}, "Human Keratinocytes [2]": {"tested_on": "Human Keratinocytes", "assay": "Reactive Oxygen Species (ROS) Assay (CellROX green, menadione)", "conditions": "for synergistic decrease in ROS production, combination with GAP amino acids vs either alone: resorcinol/test reagent combined with GAP", "method": "Human Keratinocytes (Promocell, Heidelberg, Germany) were maintained in EpiLife® keratinocyte medium containing 60 uM calcium chloride and 1% Human Keratinocyte Growth Supplement (HKGS) in a humidified incubator with an atmosphere containing 5% CO2 at 37° C. The medium was refreshed every other day. Subsequently, cells were trypsinized at 90% confluency and seeded at a density of 1-2×10^4 per well into 96-well plates with black wall and clear bottom. On the second day after seeding, cell medium was replaced with Hank's Balanced Salt Solution (HBSS) with or without menadione (10-25 uM), GAP (typically at 49 uM pyroglutamic acid, 60 uM cystine, 194 uM glycine), GAP vehicle (0.2 mM NaOH, pH 7.5), above-described additional test reagents, or combinations of GAP with additional test reagents or L-cystine esters alone, and incubated for additional 18 hours. For ROS detection, CellROX green (Life Tech, Thermo Fisher Scientific, Rockford, USA) reagent was added into each well to a final concentration of 15-25 uM and incubated for additional 2-4 hours at 37° C. in a humidified incubator. The ROS fluorescence was detected using a Tecan microplate reader (Excitation/Emission=490/525). Relative ROS production was calculated with normalization based on the vehicle control treatment which was set to 100%. Where indicated, percent protection was calculated as a comparison to menadione alone treatment, using the measured relative fluorescent units in the following equation: […]\nROS levels were evaluated together with cell viability because it is possible to get a false negative for ROS if treatment is so toxic, that at the time of assay, cells are dead (and there are no longer any detectable ROS). Decrease in ROS levels is meaningful if cells are still viable."}, "Aged Human Keratinocytes": {"tested_on": "Aged Human Keratinocytes", "assay": "Glutathione Assay (total glutathione, GSH-GSSG Glo, menadione challenge)", "conditions": "for synergistic increase in GSH synthesis, combination with GAP amino acids vs either alone: resorcinol/test reagent combined with GAP, + menadione", "method": "Aged Human Keratinocytes (Cascade Biologics, now ThermoFisher Scientific, Waltham, Mass.) were maintained in Epi Life® medium containing 60 uM calcium chloride and 1% Human Keratinocyte Growth Supplement (both media components from ThermoFisher Scientific) in a humidified incubator with an atmosphere containing 5% CO2 at 37° C. The medium was refreshed every 2-3 days. Subsequently, cells were trypsinized at 90% confluency and seeded at a density of 1×10^4 per well into 96-well plates with white wall and clear bottom. One or two days after seeding, cell medium was replaced with Hank's Balanced Salt Solution (HBSS), and keratinocytes were pre-treated with GAP (or 0.12-0.240 mM sodium hydroxide vehicle control, pH 7.5) alone or in combination with additional test reagents described above or L-cystine esters alone for 1-2 hours. The concentration of all amino acids constituting the GAP mixture used in this assay are designated in the data tables, and fully described in the abbreviations list below.\nAfter one or two hours of pre-treatment with GAP or additional test reagents, alone or in combination, keratinocytes were then challenged with 25 uM menadione (Sigma-Aldrich), a known inducer of oxidative stress. After 18-20 hours, cells were harvested and analyzed for total glutathione levels using a commercially available kit (GSH-GSSG GLo Assay, Promega), a luminescence-based system for the detection and quantification of total glutathione in cultured cells. In summary, after cell treatment, the media was removed and replaced with a cell lysis reagent for 5 minutes at 20-25° C.; note, all remaining steps were also conducted at 20-25° C. Next, a luciferase generation reagent was added to each well and incubated for 30 minutes. Following this step, a luciferin detection reagent was added to each well and plates were incubated for 15 minutes. Finally, plates were then read for luminescence in a FlexStation 3 plate reader (Molecular Devices). Total glutathione levels were calculated after interpolation of glutathione concentrations from a standard curve. Experimental conditions were typically conducted in at least triplicate determinations. Statistical significance was calculated using 1-way ANOVA. Percent protection was calculated by using the calculated glutathione levels from each experiment in the following equation: […]"}, "[3]": {"conditions": "Table 3A, Olivetol or 3-hydroxytyrosol 10 uM + menadione"}, "[4]": {"conditions": "Table 3A, Olivetol or 3-hydroxytyrosol 20 uM + menadione"}, "[5]": {"conditions": "Table 3A, Olivetol or 3-hydroxytyrosol 50 uM + menadione"}, "[6]": {"conditions": "Table 2E, BR 20 uM where present, + menadione"}, "[7]": {"conditions": "Table 1B, BR 50 uM where present, + menadione 25 uM"}, "[8]": {"conditions": "Table 2B, resorcinol (BR or IPR) 10 uM + menadione"}, "[9]": {"conditions": "Table 2B, resorcinol (BR or IPR) 50 uM + menadione"}, "[10]": {"conditions": "Table 2B, resorcinol (BR or IPR) 100 uM + menadione"}, "[11]": {"conditions": "Table 1H, CDME 20 uM + menadione"}, "[12]": {"conditions": "Table 1H, CDME 40 uM + menadione"}, "[13]": {"conditions": "Table 1H, CDME 80 uM + menadione"}, "[14]": {"conditions": "Table 1H, CDME 160 uM + menadione"}, "[15]": {"conditions": "Table 1F, DTBC 20 uM + menadione"}}, "data": [{"smiles": "OCCc1ccc(O)c(O)c1", "note": "[3-hydroxytyrosol]", "values": [{"measurement": "cell viability (% vehicle of control)", "setting": "Human Keratinocytes [1]; 3-hydroxytyrosol 10 uM + menadione", "value": 16.8, "unit": "%"}, {"measurement": "cell viability (% vehicle of control)", "setting": "Human Keratinocytes [1]; 3-hydroxytyrosol 20 uM + menadione", "value": 16.5, "unit": "%"}, {"measurement": "ROS production (% of vehicle control)", "setting": "Human Keratinocytes [2]; Table 3B, 3-hydroxytyrosol 10 uM + menadione", "value": 241.6, "unit": "%"}, {"measurement": "ROS production (% of vehicle control)", "setting": "Human Keratinocytes [2]; Table 3B, 3-hydroxytyrosol 20 uM + menadione", "value": "229.9^1%"}, {"measurement": "synergistic decrease in ROS production, combination with GAP amino acids vs either alone", "setting": "Human Keratinocytes [2]; + menadione", "value": "no synergistic effect"}, {"measurement": "% Protection (improvement vs vehicle control + menadione)", "setting": "Aged Human Keratinocytes; [3]", "value": "−3", "unit": "%"}, {"measurement": "Glutathione Synthesis, Mean (uM glutathione)", "setting": "Aged Human Keratinocytes; [3]", "value": 0.07, "unit": "µM"}, {"measurement": "% Protection (improvement vs vehicle control + menadione)", "setting": "Aged Human Keratinocytes; [4]", "value": "−5", "unit": "%"}, {"measurement": "Glutathione Synthesis, Mean (uM glutathione)", "setting": "Aged Human Keratinocytes; [4]", "value": 0.03, "unit": "µM"}, {"measurement": "% Protection (improvement vs vehicle control + menadione)", "setting": "Aged Human Keratinocytes; [5]", "value": "−4", "unit": "%"}, {"measurement": "Glutathione Synthesis, Mean (uM glutathione)", "setting": "Aged Human Keratinocytes; [5]", "value": 0.04, "unit": "µM"}, {"measurement": "synergistic increase in GSH synthesis, combination with GAP amino acids vs either alone", "setting": "Aged Human Keratinocytes", "value": "no synergistic effect"}]}, {"smiles": "CCCCc1ccc(O)cc1O", "note": "[BR, 4-butylresorcinol]", "values": [{"measurement": "% Protection (improvement vs vehicle control + menadione), cell viability", "setting": "Human Keratinocytes [1]; [6]", "value": "11.75^3%"}, {"measurement": "Cell viability (% of control)", "setting": "Human Keratinocytes [1]; [6]", "value": "74.1^3%"}, {"measurement": "% protection (improvement vs vehicle control + menadione), ROS", "setting": "Human Keratinocytes [2]; [6]", "value": 0.95, "unit": "%"}, {"measurement": "Mean ROS production (% of vehicle control)", "setting": "Human Keratinocytes [2]; [6]", "value": 220.7, "unit": "%"}, {"measurement": "synergistic decrease in ROS production, combination with GAP amino acids vs either alone", "setting": "Human Keratinocytes [2]; + menadione", "value": "synergistic decrease"}, {"measurement": "% Protection (improvement vs. vehicle control + menadione)", "setting": "Aged Human Keratinocytes; [7]", "value": "−1^1%"}, {"measurement": "Glutathione Synthesis, Mean (uM glutathione)", "setting": "Aged Human Keratinocytes; [7]", "value": "0.06^1 uM"}, {"measurement": "% Protection (improvement vs. vehicle control + menadione)", "setting": "Aged Human Keratinocytes; [8]", "value": 5, "unit": "%"}, {"measurement": "Glutathione Synthesis, Mean (uM glutathione)", "setting": "Aged Human Keratinocytes; [8]", "value": 0.10, "unit": "µM"}, {"measurement": "% Protection (improvement vs. vehicle control + menadione)", "setting": "Aged Human Keratinocytes; [9]", "value": 3, "unit": "%"}, {"measurement": "Glutathione Synthesis, Mean (uM glutathione)", "setting": "Aged Human Keratinocytes; [9]", "value": 0.07, "unit": "µM"}, {"measurement": "% Protection (improvement vs. vehicle control + menadione)", "setting": "Aged Human Keratinocytes; [10]", "value": 6, "unit": "%"}, {"measurement": "Glutathione Synthesis, Mean (uM glutathione)", "setting": "Aged Human Keratinocytes; [10]", "value": 0.13, "unit": "µM"}, {"measurement": "synergistic increase in GSH synthesis, combination with GAP amino acids vs either alone", "setting": "Aged Human Keratinocytes", "value": "synergistic increase"}]}, {"smiles": "COC(=O)[C@@H](N)CSSC[C@H](N)C(=O)OC.Cl.Cl", "note": "[CDME, L-Cystine dimethyl ester dihydrochloride]", "values": [{"measurement": "% protection (improvement vs. vehicle control + menadione), cell viability", "setting": "Human Keratinocytes [1]; [11]", "value": "30.2^1,2%"}, {"measurement": "Cell viability (% of vehicle control)", "setting": "Human Keratinocytes [1]; [11]", "value": "90.9^1,2%"}, {"measurement": "% protection (improvement vs. vehicle control + menadione), cell viability", "setting": "Human Keratinocytes [1]; [12]", "value": "33.4^1,2%"}, {"measurement": "Cell viability (% of vehicle control)", "setting": "Human Keratinocytes [1]; [12]", "value": "93.1^1,2%"}, {"measurement": "% protection (improvement vs. vehicle control + menadione), cell viability", "setting": "Human Keratinocytes [1]; [13]", "value": "24.6^1,2%"}, {"measurement": "Cell viability (% of vehicle control)", "setting": "Human Keratinocytes [1]; [13]", "value": "87.0^1,2%"}, {"measurement": "% protection (improvement vs. vehicle control + menadione), cell viability", "setting": "Human Keratinocytes [1]; [14]", "value": "51.7^1,2%"}, {"measurement": "Cell viability (% of vehicle control)", "setting": "Human Keratinocytes [1]; [14]", "value": "105.9^1,2%"}, {"measurement": "% Protection (improvement vs. vehicle control + menadione), ROS", "setting": "Human Keratinocytes [2]; [11]", "value": "18.2^2%"}, {"measurement": "ROS production (% of vehicle control)", "setting": "Human Keratinocytes [2]; [11]", "value": "107.8^2%"}, {"measurement": "% Protection (improvement vs. vehicle control + menadione), ROS", "setting": "Human Keratinocytes [2]; [12]", "value": "15.5^1,2%"}, {"measurement": "ROS production (% of vehicle control)", "setting": "Human Keratinocytes [2]; [12]", "value": "111.3^1,2%"}, {"measurement": "% Protection (improvement vs. vehicle control + menadione), ROS", "setting": "Human Keratinocytes [2]; [13]", "value": "13.3^1,2%"}, {"measurement": "ROS production (% of vehicle control)", "setting": "Human Keratinocytes [2]; [13]", "value": "114.3^1,2%"}, {"measurement": "% Protection (improvement vs. vehicle control + menadione), ROS", "setting": "Human Keratinocytes [2]; [14]", "value": "25.7^2%"}, {"measurement": "ROS production (% of vehicle control)", "setting": "Human Keratinocytes [2]; [14]", "value": "97.9^2%"}]}, {"smiles": "CCOC(=O)[C@@H](N)CSSC[C@H](N)C(=O)OCC.Cl.Cl", "note": "[DEC, Diethyl L-cystinate dihydrochloride]", "values": [{"measurement": "% Protection (improvement vs. vehicle control + menadione), ROS", "setting": "Human Keratinocytes [2]; Table 1D, DEC 20 uM + menadione", "value": "38.0^1,2%"}]}, {"smiles": "CC(C)(C)OC(=O)[C@@H](N)CSSC[C@H](N)C(=O)OC(C)(C)C.Cl.Cl", "note": "[DTBC, Ditert-butyl L-cystinate dihydrochloride]", "values": [{"measurement": "% protection (improvement vs. vehicle control + menadione), cell viability", "setting": "Human Keratinocytes [1]; [15]", "value": "6.0^1%"}, {"measurement": "% protection (improvement vs. vehicle control + menadione), cell viability", "setting": "Human Keratinocytes [1]; Table 1F, DTBC 40 uM + menadione", "value": "3.0^1%"}, {"measurement": "% protection (improvement vs. vehicle control + menadione), cell viability", "setting": "Human Keratinocytes [1]; Table 1F, DTBC 80 uM + menadione", "value": "−0.1^1%"}, {"measurement": "% Protection (improvement vs. vehicle control + menadione), ROS", "setting": "Human Keratinocytes [2]; [15]", "value": 2.2, "unit": "%"}]}]}
